Measurements taken from US20130072506A1, “6,8-DISUBSTITUTED PURINE COMPOSITIONS” (priority 2011, published 2013).

Assays:
[1] = test system: human skin fibroblast line ASF-2; test: Cell survival and toxicity (MTT assay); assay type: cell-based
Experimental: (§1) All cell culture experiments were performed on early and mid passage cultures (about 20 to 40% lifespan completed) of normal human skin fibroblast line, designated ASF-2. In order to check the effects of test compounds on senescent cells, late passage cells with more than 90% lifespan completed were used. ASF-2 cell line was established from a mammary skin biopsy obtained from a young, non-smoking and healthy […] at the time of breast reduction operation. Normal culture conditions of medium (DMEM) containing antibiotics, 10% foetal calf serum, and incubation at 37° C. with 95% humidity were used. The effects of the test compounds were determined using the following procedures.
Cell survival, toxicity, and JC-1 staining. Cell survival after exposure to various doses of the test compounds was measured with the 3-(4,5 dimethylthiazol-2-yl)-2,5-diphenyltetrazolium bromide (MTT) assay. About 5,000 cells were seeded per well in a 96-well plate 24 h before the experiment. Cells were then treated with various doses of the compound to be tested. The wells were washed in Hank's and new medium was added. After three days, MTT (Sigma, M2128) was added at 0.5 mg/ml in medium. After 4 h, MTT was collected and then dissolved in isopropanol and HCl over a 12-16 h period. The absorbance at 595 nm was measured.

[2] = test system: Amaranthus caudatus cotyledon/hypocotyl explants; test: Amaranthus bioassay (betacyanin content); assay type: in vivo, Amaranthus caudatus var. atropurpurea
Experimental: Testing of Novel Compounds in Amaranthus bioassay. Standard Amaranthus bioassay was performed with several modifications. The seeds of Amaranthus caudatus var. atropurpurea were surface-sterilized in 10% N-chlorobenzene sulfonamide (w/v) for 10 min and washed 5 times in deionized water. They were placed in 14 cm Petri dishes containing paper tissues saturated with deionized water. After 72 hours of cultivation at 25° C. in darkness, the roots of the seedlings were cut off. The explants, consisting of two cotyledons and hypocotyls, were placed in 5 cm Petri dishes on two layers of filter paper soaked in 1 ml of incubation medium containing 10 μmol Na2HPO4—KH2PO4, pH 6.8, 5 μmol tyrosine and the cytokinin to be tested. There were 20 explants per dish. The procedure was carried out under a green safe light in a darkroom. After a 48 hours of incubation at 25° C. in darkness, betacyanin was extracted by freezing the explants in 4 ml 3.33 μM acetic acid. The concentration of betacyanin was determined by comparing the absorbance at 537 nm and 620 nm as follows: DA=A537nm−A620nm. From the obtained data, the concentration with highest activity was selected for each compound tested. Relative activity of the compound at this concentration was calculated (see Table 3 below). […] The values shown in Table 3 are means of five replicates and the entire test was repeated twice.
The cytokinins to be tested were dissolved in dimethylsulfoxide (DMSO) and the solution brought up to 10^−3 M with distilled water.

[3] = test system: human skin fibroblast line ASF-2; test: Actin staining (cytoskeletal organization); assay type: cell-based; details: young cells, after 3 days, treated vs untreated
Experimental: as §1
Actin staining. The pattern of cytoskeletal actin staining was studied by staining the cells with florescent ligand FITC-labelled Phalloidin, using a florescence microscope.

SKH-1 hairless mice = test: Hairless mouse assay: skin moisture content; assay type: in vivo
Source text: Evaluation of cutaneous effects of new topical compounds in the hirless mouse assay. The purpose of this study was to evaluate new topical compounds for their safety and efficacy as topical skin anti-aging treatments. The hairless mouse model is a well established model for studying the treatments of photoaging. […] The present study was used to investigate a new class of anti-aging compounds in comparison to classical ones. […] Topical compounds and vehicle controls were be applied daily (Monday-Friday) for 3 weeks to the dorsal skin of hairless mice. At baseline (prior to the 1st treatment), and weekly, the dorsal skin was measured for: transepidermal water loss (TEWL); skin moisture content; and skin elasticity.
Experimental Design. 48 female SKH-1 hairless mice (5 weeks old, 20-25 grams, Charles River Laboratories, Wilmington, Mass.) are individually housed in filter-top cages, and acclimated for 5-7 days after delivery. The mice are divided into 8 treatment groups (n=6), including two different control groups (untreated control, vehicle control) and a therapeutic control (tretinoin 0.05% Renova™ cream). Cage cards are marked to indicate treatment groups 1-8. Water and mouse chow are provided ad libitum.
Skin Moisture Content & Elasticity. The measurements of skin moisture content and skin elasticity are important noninvasive methods used to characterize the effects of moisturizers and anti-wrinkle effects on skin. A DermaLab™ combination instrument were used to measure the skin moisture content and elasticity of the target skin sites at baseline and at weekly intervals. This instrument is equipped with dual probes which are placed on the skin surface and a quantitative measurement taken of the respective parameters and the measurements recorded on an integrated computer. Mean measurements was determined for each treatment group over time, and comparative statistics used to evaluate product effectiveness.
Topical Treatments. Beginning on Treatment Day 1, test products are applied topically each morning (Monday through Friday) after erythema evaluations for 3 weeks. Using a positive displacement pipette, 20 mg of each agent is applied to a 2 cm×2 cm area of the center midline of the back. The material was spread across the treatment area with the pipette tip.

[4] = test system: human skin fibroblast line ASF-2; test: Short-term growth of human skin fibroblasts; assay type: cell-based; details: for cellular growth: 200 to 500 μM
Experimental: Experimental Procedures. A stock solution of 4 mM for 6-furfurylamino-8-aminopurine and 8 mM for other compounds were prepared by dissolving about […] per ml 1N HCl, followed by its appropriate dilution by the addition of Hank's buffer. The stock solution was filter sterilized, stored at 4° C., and was used for experiments by dilution it in the cell culture medium as required.
as §1
Growth characteristics. Short-term growth experiments were performed using 24-well tissue culture plates (growth area 1.9 cm^2). Freshly prepared cell suspensions from mass cultures of ASF-2 cells maintained in our labs were used. About 10,000 cells were seeded into 6 sets of 24-well plates. The cells were allowed to attach and stabilize for 24 hr in normal culture medium to achieve various final concentrations (range 40 to 500 μM). Culture medium was changed with the addition of test chemicals twice a week. The numbers of cells were counted after different days of treatment in 2 wells from each concentration of the test chemical, by following the normal method of cell trypsinization and counting using a Coultercounter. The third well in each category was fixed by cold methanol and stained with Giemsa stain for permanent record and for photography. The experiment was carried on for until the cultures became fully confluent and no further growth was possible.

Nc1nc2c(NCc3ccco3)ncnc2[nH]1 [Compound 82, 6-furfurylamino-8-aminopurine]
reduction in survival ([1]; 100 μM, MTT): 15%
cell survival ([1]; 500 μM, MTT): reduction in cell survival
toxic effects (MTT) ([1]; young fibroblasts, until a dose of 100 μM): little toxic effects
Activity (%) ([2]; at concentration with highest activity, activity of kinetin set at 100%): 147.45%
Concentration with highest activity ([2]; betacyanin content, 48 hours in darkness): 10^−4 mol/l
actin staining pattern [3]: no obvious differences
mean moisture content (SKH-1 hairless mice; at week 3): most effective
average moisture content (SKH-1 hairless mice; compared with the vehicle): higher than that of the vehicle
Cell growth ([4]; 80 μM vs untreated): similar
cellular growth [4]: significantly inhibited
cellular growth ([4]; after 9 days): almost a total inhibition
